Results: patent publication US20050222110A1, “Use of loteprednol etabonate for the treatment of dry eye” (priority 2004, published 2005)

Tests used:
[1] = Clinical trial in KCS patients: adverse events and toxicity; format: in vivo, human; details: following one month of therapy
Experimental: (§1) A randomized, double-masked, placebo-controlled, multicenter, pilot study was conducted in compliance with ICH Good Clinical Practice and the Declaration of Helsinki. Approval was obtained from an Institutional Review Board for each study site before initiating the study. Written informed consent was obtained from all patients before any study specific investigations were performed.
(§2) Patients were randomly assigned to receive either Lotemax® Bausch and Lomb Inc. Rochester N.Y., or placebo four times a day. Lotemax® (loteprednol etabonate ophthalmic suspension, 0.5%) was supplied in 7.5 mL (5.0 mL fill) white, low density polyethylene dropper bottles with white caps for masking purposes. Placebo (the vehicle of Lotemax®) was supplied in identical bottles. Preservative Free Moisture Eyes™ Lubricant Eye Drops (Bausch & Lomb) were supplied in unit dose containers.
(§3) Safety was assessed by fundoscopy, lens examination and biomicroscopy, by tests of visual acuity and intraocular pressure, and by monitoring adverse events and changes in symptomatology. Adverse events were evaluated by the investigator as to severity (mild, moderate, severe) and relationship of the event to the study drug (probable, possible, unlikely, or unknown).

[2] = Clinical trial in KCS patients: intraocular pressure; format: in vivo, human; details: one month of therapy; mean IOP and individual patients
Experimental: as §1, §2, §3

[3] = tested on: keratoconjunctivitis sicca (KCS) in patients with delayed tear clearance; assay: Clinical trial in KCS patients: corneal fluorescein staining score; format: in vivo, human; details: subset with more severe clinical inflammatory signs at entry
Experimental: as §1
In addition, they were required to meet the following criteria in at least one eye: • 1. delayed tear clearance defined by a standardized visual scale score ≧3^15 • 2. at least one symptom >30 mm on the visual analog scale (VAS) • 3. composite corneal staining score >3
Patients were randomly assigned to receive either Lotemax® Bausch and Lomb Inc. Rochester N.Y., or placebo four times a day. […]
Patients attended for 5 visits. […] The fluorescence was graded between 0 and 6 using a standard color comparison scale. […] The corneal staining was evaluated 5 minutes after the instillation of the 2% fluorescein, viewing the cornea through a slit lamp with blue light and a No. 11 Wratten filter (See Table 2 below).
As is traditional for studies of this kind, two primary variables were defined representing subjective evaluation by the patient and objective evaluation based on the clinical examination findings. […] Each area was scored according to the corneal staining grading scale (Table 2 above). […]

[4] = 0.2%; up to 3 years; 265 patients; allergic conjunctivitis; cited from earlier work

For `CCOC(=O)O[C@]1(C(=O)OCCl)CC[C@H]2[C@@H]3CCC4=CC(=O)C=C[C@]4(C)[C@H]3[C@@H](O)C[C@@]21C` [loteprednol, (11β,17α),-17-[(Ethoxycarbonyl)oxy]-11-hydroxy-3-oxoandrosta-1,4-diene-17-carboxylic acid chloromethyl ester], the Toxicity [1] was “complete lack of toxicity”, the “Elevation of IOP” value [2] was “neither elevation of the mean IOP nor any individual with a clinically important elevation of the IOP” and the “Central corneal fluorescein staining, improvement” value ([3]; four weeks) was about 20%. For the same compound, the “Central corneal fluorescein staining, improvement” value ([3]; two weeks) was “approximately 30%”, the Cataract formation [4] was “no cataract formation was observed” and the “Mean intraocular pressure compared to pretreatment values” [4] was “not different from baseline”.
